Key:
Type in all cases: in vivo
[1] = test system: Abutilon theophrasti (ABUTH); experiment: Pre-emergence herbicidal action against ABUTH; settings: Dosage column 320 g/ha (title prints 3200 g/ha); scored visually after about 3 weeks; 100% = plants have died
Method in brief: (§1)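 Greenhouse pot trial: seeds sown, soil-covered, sprayed before emergence with compound in water (0.5% additive; 600 l/ha; ≤320 g/ha). Scoring visual, ~3 weeks, 0–100% scale vs untreated.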

[2] = test system: Alopecurus myosuroides (ALOMY); experiment: Pre-emergence herbicidal action against ALOMY; settings: scored visually after about 3 weeks, 100% = plants have died
Method in brief: as §1

[3] = test system: Amaranthus retroflexus (AMARE); experiment: Pre-emergence herbicidal action against AMARE; settings: visual scoring after about 3 weeks vs untreated controls
Method in brief: as §1

[4] = test system: Digitaria sanguinalis (DIGSA); experiment: Pre-emergence herbicidal action against DIGSA
Method in brief: as §1

[5] = test system: Echinochloa crus-galli (ECHCG); experiment: Pre-emergence herbicidal action against ECHCG
Method in brief: as §1

[6] = test system: Lolium rigidum (LOLRI); experiment: Pre-emergence herbicidal action against LOLRI
Method in brief: as §1

[7] = test system: Matricaria inodora (MATIN); experiment: Pre-emergence herbicidal action against MATIN
Method in brief: as §1

[8] = test system: Pharbitis purpurea (PHBPU); experiment: Pre-emergence herbicidal action against PHBPU
Method in brief: as §1

[9] = test system: Polygonum convolvulus (POLCO); experiment: Pre-emergence herbicidal action against POLCO
Method in brief: as §1

[10] = test system: Setaria viridis (SETVI); experiment: Pre-emergence herbicidal action against SETVI
Method in brief: as §1

[11] = test system: Verconica persica (VERPE); experiment: Pre-emergence herbicidal action against VERPE
Method in brief: as §1

[12] = test system: Viola tricolor (VIOTR); experiment: Pre-emergence herbicidal action against VIOTR
Method in brief: as §1

[13] = test system: Alopecurus myosuroides (ALOMY); experiment: Post-emergence herbicidal action against ALOMY; settings: visual rating about 3 weeks after treatment vs untreated controls (100% = plants have died, 0% = like control plants)
Method in brief: (§2)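 Rates were 320 g/ha or below, applied as aqueous WP/EC spray with 0.5% additive (600 l/ha) onto one-leaf-stage plants. About 3 weeks later in the greenhouse, damage was scored visually against untreated plants on a 0–100% scale, where 100% means plants died.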

[14] = test system: Amaranthus retroflexus (AMARE); experiment: Post-emergence herbicidal action against AMARE
Method in brief: as §2

[15] = test system: Avena fatua (AVEFA); experiment: Post-emergence herbicidal action against AVEFA; settings: visual rating about 3 weeks after treatment
Method in brief: as §2

[16] = test system: Digitaria sanguinalis (DIGSA); experiment: Post-emergence herbicidal action against DIGSA; settings: visual rating about 3 weeks after treatment
Method in brief: as §2

[17] = test system: Echinochloa crus-galli (ECHCG); experiment: Post-emergence herbicidal action against ECHCG
Method in brief: as §2

[18] = test system: Lolium rigidum (LOLRI); experiment: Post-emergence herbicidal action against LOLRI
Method in brief: as §2

[19] = test system: Pharbitis purpurea (PHBPU); experiment: Post-emergence herbicidal action against PHBPU
Method in brief: as §2

[20] = test system: Setaria viridis (SETVI); experiment: Post-emergence herbicidal action against SETVI
Method in brief: as §2

[21] = test system: Viola tricolor (VIOTR); experiment: Post-emergence herbicidal action against VIOTR
Method in brief: as §2

[22] = test system: Oryza sativa (ORYSA); settings: crop plant compatibility, 80 g/ha, effect in comparison to untreated controls
Method in brief: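 Visual rating (% effect vs. untreated plants; 100% = plant death) made about 3 weeks after treatment. Plants had been sprayed at one-leaf stage, 2–3 weeks post-sowing, with aqueous WP/EC preparations containing 0.5% additive, 600 l/ha water volume; a, b, c mark dose levels.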

[23] = test system: Avena fatua (AVEFA); experiment: Pre-emergence herbicidal action against AVEFA; settings: 320 g/ha, visual scoring after about 3 weeks vs untreated controls
Method in brief: as §1

[24] = test system: Abutilon theophrasti (ABUTH); experiment: Post-emergence herbicidal action against ABUTH; settings: 320 g/ha, visual rating about 3 weeks after treatment vs untreated controls (100% = plants have died, 0% = like control plants)
Method in brief: as §2

[25] = test system: Polygonum convolvulus (POLCO); experiment: Post-emergence herbicidal action against POLCO; settings: dosage 320 g/ha
Method in brief: as §2

[26] = test system: Verconica persica (VERPE); experiment: Post-emergence herbicidal action against VERPE; settings: 320 g/ha, VERPE
Method in brief: as §2

[27] = 80 g/ha, visual scoring after about 3 weeks vs untreated controls

Compound | Pre-emergence action against ABUTH [1] | Pre-emergence action against ALOMY ([2]; 320 g/ha) | Pre-emergence action against AMARE in % ([3]; 80 g/ha) | Pre-emergence action against AMARE in % ([3]; 320 g/ha) | Pre-emergence action against DIGSA in % [4, 27] | Pre-emergence action against DIGSA in % ([4]; dosage 320 g/ha) | Pre-emergence action against ECHCG in % ([5]; dosage 320 g/ha) | Pre-emergence action against LOLRI in % ([6]; dosage 320 g/ha) | Pre-emergence action against MATIN in % ([7]; dosage 80 g/ha) | Pre-emergence action against MATIN in % ([7]; dosage 320 g/ha) | Pre-emergence action against PHBPU in % ([8]; dosage 320 g/ha) | Pre-emergence action against POLCO in % ([9]; dosage 80 g/ha) | Pre-emergence action against POLCO in % ([9]; dosage 320 g/ha) | Pre-emergence action against SETVI in % ([10]; dosage 80 g/ha) | Pre-emergence action against SETVI in % ([10]; dosage 320 g/ha) | Pre-emergence action against VERPE in % ([11]; dosage 320 g/ha) | Pre-emergence action against VIOTR in % ([12]; 320 g/ha, Viola tricolor) | Pre-emergence action against VIOTR in % ([12]; dosage 80 g/ha) | Post-emergence action against ALOMY in % ([13]; 80 g/ha) | Post-emergence action against ALOMY in % ([13]; 320 g/ha) | also measured
COC(=O)C(C)COC(=O)COc1nn(-c2ccccn2)c(-c2cncc(F)c2)c1Cl (centres unmarked) [Example I-221] | 80% | 90% | 80% | 90% | 90% | 100% | 100% | 100% | 90% | 90% | 90% | 80% | 90% | 90% | 100% | 90% | 90% | 90% | 80% | 80% | Pre-emergence action against ECHCG in % ([5]; dosage 80 g/ha): 90%; Pre-emergence action against LOLRI in % ([6]; dosage 80 g/ha): 80%; Pre-emergence action against PHBPU in % ([8]; dosage 80 g/ha): 90%; Post-emergence action against AMARE in % ([14]; 80 g/ha, visual rating about 3 weeks after treatment vs untreated controls (100% = plants have died, 0% = like control plants)): 80%; Post-emergence action against AMARE in % ([14]; 320 g/ha, visual rating about 3 weeks after treatment): 90%; Post-emergence action against AVEFA in % ([15]; 320 g/ha): 80%; Post-emergence action against DIGSA in % ([16]; 320 g/ha): 80%; Post-emergence action against ECHCG in % ([17]; dosage 80 g/ha): 80%; Post-emergence action against ECHCG in % ([17]; dosage 320 g/ha): 80%; Post-emergence action against LOLRI in % ([18]; dosage 80 g/ha): 80%; Post-emergence action against LOLRI in % ([18]; dosage 320 g/ha): 90%; Post-emergence action against PHBPU in % ([19]; dosage 80 g/ha): 90%; Post-emergence action against PHBPU in % ([19]; dosage 320 g/ha): 100%; Post-emergence action against SETVI in % ([20]; dosage 80 g/ha): 90%; Post-emergence action against SETVI in % ([20]; dosage 320 g/ha): 90%; Post-emergence action against VIOTR in % ([21]; 80 g/ha): 80%; Post-emergence action against VIOTR in % ([21]; 320 g/ha): 80%; Post-emergence action against ORYSA in % [22]: 20%
C[C@@H](Oc1nn(-c2nc(F)ccc2F)c(-c2ccc(F)nc2)c1C1CC1)C(=O)O [Example I-296] | 80% | 100% | 80% | 90% | 90% | 100% | 100% | 100% | 80% | 90% | 90% | 80% | 90% | 90% | 100% | 100% | 100% | 90% | 80% | 90% | Pre-emergence action against ALOMY ([2]; 80 g/ha): 80%; Pre-emergence action against AVEFA in % [23]: 90%; Pre-emergence action against VERPE in % ([11]; dosage 80 g/ha): 90%; Post-emergence action against ABUTH in % [24]: 80%; Post-emergence action against AVEFA in % ([15]; 80 g/ha): 80%; Post-emergence action against AVEFA in % ([15]; 320 g/ha): 80%; Post-emergence action against DIGSA in % ([16]; 80 g/ha): 80%; Post-emergence action against DIGSA in % ([16]; 320 g/ha): 90%; Post-emergence action against ECHCG in % ([17]; dosage 80 g/ha): 80%; Post-emergence action against ECHCG in % ([17]; dosage 320 g/ha): 80%; Post-emergence action against LOLRI in % ([18]; dosage 80 g/ha): 80%; Post-emergence action against LOLRI in % ([18]; dosage 320 g/ha): 80%; Post-emergence action against PHBPU in % ([19]; dosage 320 g/ha): 90%; Post-emergence action against POLCO in % [25]: 80%; Post-emergence action against SETVI in % ([20]; dosage 320 g/ha): 80%; Post-emergence action against VERPE in % [26]: 80%; Post-emergence action against VIOTR in % ([21]; 80 g/ha): 80%; Post-emergence action against VIOTR in % ([21]; 320 g/ha): 80%; Post-emergence action against ORYSA in % [22]: 0%

Source: patent US20240041042A1, “1-(PYRIDYL)-5-AZINYLPYRAZOLE DERIVATIVES, AND THEIR USE FOR CONTROL OF UNDESIRED PLANT GROWTH” (Bayer Aktiengesellschaft, priority 2020, published 2024)
